Activity calls are given as the source filed them. The rule behind the calls is not given here.
Experiments:
[1] = molecular target: T1, Tyrosine-protein phosphatase non-receptor type 1 (Homo sapiens, UniProt P18031); experiment: Inhibition of PTP1B (unknown origin)
T1 sequence (P18031 whole entry): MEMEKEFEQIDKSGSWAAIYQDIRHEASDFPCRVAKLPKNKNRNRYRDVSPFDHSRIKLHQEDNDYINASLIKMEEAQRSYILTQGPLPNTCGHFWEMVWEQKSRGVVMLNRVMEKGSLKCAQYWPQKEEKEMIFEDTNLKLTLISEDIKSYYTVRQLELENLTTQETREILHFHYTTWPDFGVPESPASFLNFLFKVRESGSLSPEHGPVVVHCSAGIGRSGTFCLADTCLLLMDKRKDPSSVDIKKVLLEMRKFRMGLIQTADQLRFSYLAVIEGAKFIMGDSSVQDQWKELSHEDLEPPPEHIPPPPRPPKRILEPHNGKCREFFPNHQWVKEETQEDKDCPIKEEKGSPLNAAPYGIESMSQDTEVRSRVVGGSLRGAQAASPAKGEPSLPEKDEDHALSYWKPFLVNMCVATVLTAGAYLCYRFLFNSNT

[2] = molecular target: T2, Tyrosine-protein phosphatase non-receptor type 1 (Homo sapiens) (UniProt P18031); experiment: Inhibition of PTP1B (unknown origin) at 20.7 uM
T2 sequence (whole entry): T1 sequence (P18031 whole entry)

[3] = molecular target: T2, Tyrosine-protein phosphatase non-receptor type 1 (Homo sapiens); conditions: 23.1 uM
Description: Inhibition of PTP1B (unknown origin) at 23.1 uM

SMILES | IC50 [1] [µM] | further results
C[C@H]1OC(=O)c2c(O)cc3c(c2[C@H]1O)C[C@H]1[C@@]2(C)C=CC(=O)C(C)(C)[C@@H]2C[C@H](O)[C@]1(C)O3 | 8.5 | 
C[C@@H]1Cc2c3c(cc(O)c2C(=O)O1)O[C@@]1(C)CC[C@H]2C(C)(C)C(=O)C=C[C@]2(C)[C@@H]1C3 | 8.4 | 
C[C@@H]1Cc2c3c(cc(O)c2C(=O)O1)O[C@@]1(C)[C@@H](O)C[C@H]2C(C)(C)C(=O)CC[C@]2(C)[C@@H]1C3 | 14.9 | 
CC(=O)O[C@@H]1c2c3c(cc(O)c2C(=O)O[C@@H]1C)O[C@@]1(C)[C@@H](O)C[C@H]2C(C)(C)C(=O)C=C[C@]2(C)[C@@H]1C3 |  | inhibition [2]: inactive
C/C(=C\Cc1c(O)cc(O)c2c1C[C@@H](C)OC2=O)CC/C=C(\C)CCC(O)C(C)(C)O (stereo not given in full) |  | inhibition [3]: 40%
